Data taken from patent publication US20230078764A1 (Yumanity Therapeutics, Inc., priority 2019, published 2023).
Where two headings read alike, the source gives them in different places.

How the values were obtained:
[1] = target: T1, human SCD1 (Homo sapiens, UniProt O00767); experiment: Growth inhibition of yeast strain expressing human SCD1 as sole desaturase (OLE1 deleted), OD600 readout; assay type: cell-based
T1 construct: expressed in transfected cells; host or cells: yeast strain with OLE1 deleted, plasmid-borne human SCD1 (selected in SD-Ura)
T1 sequence (O00767 1-359): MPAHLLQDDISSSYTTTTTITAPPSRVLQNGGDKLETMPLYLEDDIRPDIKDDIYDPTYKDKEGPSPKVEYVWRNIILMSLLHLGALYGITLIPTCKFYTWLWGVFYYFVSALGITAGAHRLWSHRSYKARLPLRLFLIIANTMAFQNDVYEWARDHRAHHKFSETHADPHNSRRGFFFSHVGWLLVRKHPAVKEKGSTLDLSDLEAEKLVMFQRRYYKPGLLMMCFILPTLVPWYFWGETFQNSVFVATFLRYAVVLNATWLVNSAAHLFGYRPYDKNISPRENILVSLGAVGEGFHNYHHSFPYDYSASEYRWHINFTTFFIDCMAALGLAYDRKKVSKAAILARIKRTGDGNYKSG

[2] = target: T2, human SCD5 (Homo sapiens, UniProt Q86SK9); experiment: Growth inhibition of yeast strain expressing human SCD5 as sole desaturase (OLE1 deleted), OD600 readout; assay type: cell-based
T2 construct: expressed in transfected cells; host or cells: yeast strain with OLE1 deleted, plasmid-borne human SCD5 (selected in SD-Ura)
T2 sequence (Q86SK9 1-330): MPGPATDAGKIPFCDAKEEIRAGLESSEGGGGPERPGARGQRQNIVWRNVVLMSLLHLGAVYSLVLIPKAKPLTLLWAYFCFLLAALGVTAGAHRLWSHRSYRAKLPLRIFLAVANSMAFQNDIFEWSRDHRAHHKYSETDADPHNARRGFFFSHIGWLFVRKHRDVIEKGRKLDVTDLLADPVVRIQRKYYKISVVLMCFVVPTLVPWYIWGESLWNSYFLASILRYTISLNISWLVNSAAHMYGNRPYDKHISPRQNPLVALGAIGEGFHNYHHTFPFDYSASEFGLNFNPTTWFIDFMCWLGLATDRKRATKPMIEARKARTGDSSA

[3] = yeast strain expressing human SCD1 as sole desaturase, growth (OD600) after 40 h at 30° C., read-out: SCD1 IC50
[4] = yeast strain expressing human SCD5 as sole desaturase, growth (OD600) after 40 h at 30° C., read-out: SCD5 IC50

| Compound | IC50 [1, 3] [nM] | IC50 [2, 4] [nM] | IC50 ([1]; SCD1 IC50) [nM] | IC50 ([2]; SCD5 IC50) [nM] |
| --- | --- | --- | --- | --- |
| Cn1nc(C(=O)Nc2ccc(Cc3ccc(C(F)(F)F)cc3)cn2)ccc1=O [Example 39, 1-methyl-6-oxo-N-(5-(4-(trifluoromethyl)benzyl)pyridin-2-yl)-1,6-dihydropyridazine-3-carboxamide] | > 45000 | 920 | – | – |
| Cn1cc(C(=O)Nc2ccc(C3CC3c3ccccc3)cn2)ccc1=O (stereo not shown) [Compound 298] | 2750 | 340 | – | – |
| CN1N=C(C(=O)Nc2ccc(Cc3cccc(C(F)(F)F)c3)cn2)CCC1=O [Example 18, 1-methyl-6-oxo-N-(5-(3-(trifluoromethyl)benzyl)pyridin-2-yl)-1,4,5,6-tetrahydropyridazine-3-carboxamide] | 8570 | 1600 | – | – |
| CCn1nc(C(=O)Nc2ccc(Cc3cccc(Cl)c3)nn2)ccc1=O [Compound 185, N-(6-(3-chlorobenzyl)pyridazin-3-yl)-1-ethyl-6-oxo-1,6-dihydropyridazine-3-carboxamide] | > 45000 | 8590 | – | – |
| CN1N=C(C(=O)Nc2ncc(C(O)c3cccc(F)c3)s2)CCC1=O (stereo not shown) [Compound 205, N-(5-((3-fluorophenyl)(hydroxy)methyl)thiazol-2-yl)-1-methyl-6-oxo-1,4,5,6-tetrahydropyridazine-3-carboxamide] | > 45000 | 29400 | – | – |
| CN1N=C(C(=O)Nc2ccc(Cc3cccc(C(F)(F)F)n3)cn2)CCC1=O [Compound 445] | > 45000 | > 45000 | – | – |
| O=C(Nc1ccc(Cc2ccc(F)c(Cl)c2)cn1)c1ccc2nncn2c1 [Compound 148, N-(5-(3-chloro-4-fluorobenzyl)pyridin-2-yl)-[1,2,4]triazolo[4,3-a]pyridine-6-carboxamide] | 10 | 10 | – | – |
| Cc1cnc(Cc2ccc(NC(=O)C3=NN(C)C(=O)CC3)nc2)s1 [Compound 402] | > 45000 | > 45000 | – | – |
| O=C(Nc1ccc(Cc2cccc(Cl)c2)cn1)c1nnc(C(F)(F)F)o1 [Compound 681] | > 45000 | 2100 | – | – |
| Cn1cc(C(=O)Nc2ccc(N3CC(Oc4cccc(Cl)c4)C3)cn2)ccc1=O [Compound 660] | > 45000 | 8900 | – | – |
| CCn1cc(C(=O)Nc2ccc(Cc3cccc(Cl)c3)cn2)ccc1=O [Compound 84, N-(5-(3-chlorobenzyl)pyridin-2-yl)-1-ethyl-6-oxo-1,6-dihydropyridine-3-carboxamide] | 6660 | 370 | – | – |
| Cn1cc(NC(=O)c2ccc(COc3cccc(Cl)c3)cn2)ccc1=O [Compound 487] | 4600 | 310 | – | – |
| Cn1cc(C(=O)Nc2nnc(Cc3cc(F)cc(Cl)c3)s2)ccc1=O [Compound 431] | 1070 | > 45000 | – | – |
| Cn1nc(NC(=O)N2CCC(Cc3cccc(Cl)c3)CC2)ccc1=O [Compound 309] | 540 | 50 | – | – |
| CN1N=C(C(=O)Nc2ncc(Cc3cccc(F)c3)nn2)CCC1=O [Compound 245] | > 45000 | > 45000 | – | – |
| Cn1cc(C(=O)Nc2ccc(Cc3cc(F)c(F)c(F)c3)nn2)ccc1=O [Compound 267] | > 45000 | 10600 | – | – |
| CCn1cc(C(=O)Nc2ccc(Cc3cccc(Cl)c3)nn2)ccc1=O [Compound 184, N-(6-(3-chlorobenzyl)pyridazin-3-yl)-1-ethyl-6-oxo-1,6-dihydropyridine-3-carboxamide] | > 45000 | 28900 | – | – |
| Cn1ccc(C(=O)Nc2ccc(Cc3ccc(F)c(F)c3)cn2)n1 [Compound 371] | 120 | 10 | – | – |
| Cn1cc(C(=O)Nc2ccc(Cc3ccc(F)c(F)c3)cn2)ccc1=O [Compound 66, N-(5-(3,4-difluorobenzyl)pyridin-2-yl)-1-methyl-6-oxo-1,6-dihydropyridine-3-carboxamide] | – | – | 1440 | 10 |
| CN1N=C(C(=O)Nc2ccc(Cc3ccccc3)nn2)CCC1=O [Compound 186, N-(6-benzylpyridazin-3-yl)-1-methyl-6-oxo-1,4,5,6-tetrahydropyridazine-3-carboxamide] | > 45000 | 12600 | – | – |
| O=C(Nc1ccc(Cc2cc(F)cc(F)c2)cn1)c1cncc(CO)c1 [Compound 580] | 19 | 10 | – | – |
| Cn1cc(C(=O)Nc2ccc(Cc3cccc(F)c3)cc2)ccc1=O [Compound 5, N-(4-(3-fluorobenzyl)phenyl)-1-methyl-6-oxo-1,6-dihydropyridine-3-carboxamide] | 3340 | 1870 | – | – |
| CC(C)c1ccc(Cc2ccc(NC(=O)C3=NN(C)C(=O)CC3)nc2)cc1 [Compound 383] | > 45000 | > 45000 | – | – |
| O=C(Nc1ccc(Cc2cc(F)cc(F)c2)cn1)c1ccncc1 [Compound 651] | 90 | 24 | – | – |
| CN1N=C(C(=O)Nc2ncc(Cc3cc(F)cc(F)c3)s2)CCC1=O [Compound 229, N-(5-(3,5-difluorobenzyl)thiazol-2-yl)-1-methyl-6-oxo-1,4,5,6-tetrahydropyridazine-3-carboxamide] | 140 | 110 | – | – |
| N#Cc1ccc(NC(=O)c2ccc(Cc3cc(F)cc(F)c3)cn2)cn1 [Compound 526] | 99 | 10 | – | – |

Continued, in another order:

| IC50 [1, 3] [nM] | IC50 [2, 4] [nM] | Compound | IC50 ([1]; SCD1 IC50) [nM] | IC50 ([2]; SCD5 IC50) [nM] |
| --- | --- | --- | --- | --- |
| > 45000 | > 45000 | O=C(Nc1ccc(Cc2cccc(Cl)c2)cn1)c1ccc2nccn2n1 [Compound 415] | – | – |
| 980 | 100 | Cn1nc(C(=O)Nc2nc(Br)c(Cc3cccc(F)c3)s2)ccc1=O [Compound 317] | – | – |
| 180 | 10 | Cn1cc(C(=O)Nc2ccc(Cc3cccc(Cl)c3)cn2)cc(F)c1=O [Compound 128, N-(5-(3-chlorobenzyl)pyridin-2-yl)-5-fluoro-1-methyl-6-oxo-1,6-dihydropyridine-3-carboxamide] | – | – |
| > 45000 | > 45000 | COc1ccc(Cn2c(C(=O)Nc3ccc(Cc4cccc(F)c4)cn3)cc(=O)n2C)cc1 [Compound 455] | – | – |
| 990 | 450 | Cn1nc(C(=O)Nc2ccc(Cc3cccc(Cl)c3)cc2)ccc1=O [Compound 3, N-(4-(3-chlorobenzyl)phenyl)-1-methyl-6-oxo-1,6-dihydropyridazine-3-carboxamide] | – | – |
| > 45000 | 371 | O=C(Nc1ccc(Cc2cccc(F)c2)cn1)c1ncc(Cl)cc1F [Compound 611] | – | – |
| 1820 | 30 | Cn1nc(NC(=O)c2ccc(Cc3ccc(F)c(F)c3)cn2)ccc1=O [Compound 312] | – | – |
| > 45000 | > 45000 | Cn1cc(C(=O)Nc2ccc(COc3ccc(F)cc3)cn2)ccc1=O [Compound 452] | – | – |
| 1000 | 110 | N#Cc1ccc(C(=O)Nc2ccc(Cc3cc(F)cc(C#N)c3)cn2)nc1 [Compound 536] | – | – |
| > 45000 | 10 | CC(=O)c1ccc(C(=O)Nc2ccc(Cc3cccc(Cl)c3)cn2)nc1 [Compound 502] | – | – |
| 4390 | 310 | Cn1ccc(C(=O)Nc2ccc(Cc3cccc(F)c3)cn2)cc1=O [Compound 240] | – | – |
| 49 | 60 | CC(O)c1ccc(C(=O)Nc2ccc(Cc3cccc(Cl)c3)cn2)nn1 (stereo not shown) [Compound 512] | – | – |
| 38500 | 7040 | CC(C)(O)c1ccc(C(=O)Nc2ccc(Cc3cccc(Cl)c3)cn2)cn1 [Compound 374] | – | – |
| 110 | 180 | C=Cc1ncc(C(=O)Nc2ccc(Cc3cccc(Cl)c3)cn2)cc1F [Compound 333] | – | – |
| > 45000 | 140 | N#Cc1cc(F)cc(Cc2ccc(NC(=O)c3cnc(Cl)cn3)nc2)c1 [Compound 646] | – | – |
| 32000 | 43 | N#Cc1ccc(C(=O)Nc2ccc(Cc3cc(F)cc(F)c3)cn2)nc1 [Compound 493] | – | – |
| 880 | 220 | C[C@H](O)c1ccc(C(=O)Nc2ccc(Cc3cccc(Cl)c3)cn2)cn1 [Compound 519] | – | – |
| > 45000 | 770 | O=C(Nc1ccc(Cc2cccc(F)c2)cn1)c1ccn(C(F)(F)F)n1 [Compound 372] | – | – |
| > 45000 | > 45000 | COC(=O)c1ccc(C(=O)Nc2ccc(COc3ccc(F)c(Cl)c3)cn2)nc1 [Compound 428] | – | – |
| 22500 | 340 | O=C(Nc1ccc(Cc2cccc(Cl)c2)cn1)c1ccc(C(F)F)nc1 [Compound 295] | – | – |
| > 45000 | 5600 | Cn1nc(C(=O)Nc2ccc(Nc3cccc(F)c3)cn2)ccc1=O [Compound 300] | – | – |
| 4800 | 620 | N#Cc1ccc(C(=O)Nc2ccc(CNc3cccc(Cl)c3)cn2)cn1 [Compound 482] | – | – |
| > 45000 | 2500 | Cn1nc(C(=O)Nc2ccc(Cc3cccc(C#N)c3F)cn2)ccc1=O [Compound 614] | – | – |
| > 45000 | 230 | N#Cc1ccc(C(=O)Nc2ccc(Cc3cccc(F)c3)cn2)cc1 [Compound 133, 4-cyano-N-(5-(3-fluorobenzyl)pyridin-2-yl)benzamide] | – | – |
